Experiments:
Type in all cases: in vivo
[1] = test system: cattle tick larvae (Rhipicephalus microplus); experiment: Rhipicephalus (Boophilus) microplus in-vitro contact test, larval cattle tick (strain Parkhurst, resistant against synthetic pyrethroids); conditions: after 48 hours, read-out: efficacy (larvae dead or moribund); for pest or weed control at 1 µg/cm2, 100 g/ha: 1 μg/cm^2 (=100 g/ha); for pest or weed control at 5 µg/cm2, 500 g/ha: 5 μg/cm^2 (=500 g/ha)
Method: Rhipicephalus (Boophilus) Microplus—In-Vitro Contact Tests Larval Cattle Tick (Strain Parkhurst, Resistant Against Synthetic Pyrethroids)
9 mg compound is solved in 1 mL acetone and diluted with acetone to the desired concentration. 250 μL of the test solution is filled in 25 mL glass test tubes and homogeneously distributed on the inner walls by rotation and tilting on a shaking device (2 h at 30 rpm). With a compound concentration of 900 ppm, an inner surface of 44.7 cm^2 and a homogeneous distribution, a dose of 5 μg/cm^2 is achieved.
After the solvent has evaporated, each test tube is filled with 20-50 cattle tick larvae (Rhipicephalus microplus), closed with a perforated lid and incubated in a horizontal position at 85% relative humidity and 27° C. in an incubator. After 48 hours efficacy is determined. The larvae are patted on the ground of the tubes and negative geotactic behavior is recorded.
An efficacy of 100% means all larvae are dead or moribund; 0% means no larvae are dead or moribund.

[2] = test system: adult engorged female ticks (Rhipicephalus microplus); experiment: Rhipicephalus (Boophilus) microplus injection test; conditions: 4 μg/tick, egg deposition after 7 days
Method: Rhipicephalus (Boophilus) Microplus—Injection Test
• Solvent: Dimethyl Sulfoxide
To produce a suitable preparation of active compound, 10 mg of active compound are dissolved in 0.5 mL solvent, and the concentrate is diluted with solvent to the desired concentration.
Five adult engorged female ticks (Rhipicephalus microplus) are injected with 1 μL compound solution into the abdomen. The ticks are transferred into replica plates and incubated in a climate chamber.
After 7 days egg deposition of fertile eggs is monitored. Eggs where fertility is not visible are stored in a climate chamber till hatching after about 42 days. An efficacy of 100% means all eggs are infertile; 0% means all eggs are fertile.

[3] = test system: adult unfed cat fleas (Ctenocephalides felis); experiment: Ctenocephalides felis oral test; conditions: 48 h, 100 ppm in citrated cattle blood, after 2 days
Method: Ctenocephalides felis—Oral Test • Solvent: Dimethyl Sulfoxide
To produce a suitable preparation of active compound, 10 mg of active compound are dissolved in 0.5 mL solvent, and the concentrate is diluted with citrated cattle blood to the desired concentration.
Approximately 20 adult unfed cat fleas (Ctenocephalides felis) are placed in a flea chamber whose top and bottom is covered with gauze. A chamber whose bottom is sealed with parafilm, is filled with the blood-compound solution and placed on top of the flea chamber, so that the fleas can suck the blood. The blood chamber is heated to 37° C. whereas the flea chamber is kept at room temperature.
After 2 days mortality in % is determined. 100% means all the fleas have been killed; 0% means none of the fleas have been killed.

[4] = test system: larvae of the banded cucumber beetle (Diabrotica balteata); experiment: Diabrotica balteata spray test; conditions: 168 h, 100 g/ha (=32 μg/well), wheat seeds, after 7 days, read-out: efficacy (seedling growth)
Method: Diabrotica Balteata—Spray Test
• Solvent: 78.0 Parts by Weight of Acetone • 1.5 parts by weight of dimethylformamide • Emulsifier: Alkylarylpolyglycol Ether
(§1) To produce a suitable preparation of active compound, 1 part by weight of active compound is mixed with the stated amount of solvent, and the concentrate is diluted with water, containing an emulsifier concentration of 1000 ppm, to the desired concentration. Further test concentrations are prepared by dilution with emulsifier containing water.
Soaked wheat seeds (Triticum aestivum) are placed in a multiple well plate filled with agar and some water and are incubated for 1 day to germinate (5 seeds per well). The germinated wheat seeds are sprayed with a test solution containing the desired concentration of the active ingredient. Afterwards each unit is infected with 10-20 larvae of the banded cucumber beetle (Diabrotica balteata).
After 7 days efficacy in % is determined. 100% means all the seedlings have grown up like in the untreated, uninfected control; 0% means none of the seedlings have grown.

[5] = test system: brown planthopper (Nilaparvata lugens); experiment: Nilaparvata lugens spray test; conditions: 96 h, rice plants, after 4 days
Method: Nilaparvata lugens—Spray Test • Solvent: 78.0 parts by weight of acetone • 1.5 parts by weight of dimethylformamide • Emulsifier: alkylarylpolyglycol ether
(§2) To produce a suitable preparation of active compound, 1 part by weight of active compound is mixed with the stated amount of solvents and is diluted with water, containing an emulsifier concentration of 1000 ppm, to the desired concentration. Further test concentrations are prepared by dilution with emulsifier containing water.
Rice plants (Oryza sativa) are sprayed with a preparation of the active ingredient of the desired concentration and the plants are infested with the brown planthopper (Nilaparvata lugens).
After 4 days mortality in % is determined. 100% means all planthoppers have been killed and 0% means none of the planthoppers have been killed.

[6] = test system: fall armyworm larvae (Spodoptera frugiperda); experiment: Spodoptera frugiperda spray test; conditions: 168 h, maize leaf sections, after 7 days
Method: Spodoptera frugiperda—Spray Test • Solvent: 78.0 parts by weight acetone • 1.5 parts by weight dimethylformamide • Emulsifier: alkylarylpolyglycol ether
as §2
Maize (Zea mays) leaf sections are sprayed with a preparation of the active ingredient of the desired concentration. Once dry, the leaf sections are infested with fall armyworm larvae (Spodoptera frugiperda).
After 7 days mortality in % is determined. 100% means all caterpillars have been killed and 0% means none of the caterpillars have been killed.

[7] = test system: adult mosquitoes Aedes aegypti strain MONHEIM; experiment: Aedes aegypti test (AEDSAE surface treatment & contact assay); conditions: 24 hours after contact, read-out: efficacy (mortality); for mortality at 20 mg/m2: surface concentration 20 mg/m^2, 30 minutes exposure; for mortality at 4 mg/m2: surface concentration 4 mg/m^2, 30 minutes exposure
Method: Aedes aegypti Test (AEDSAE Surface Treatment & Contact Assay) • Solvent: Aceton+2000 ppm rapeseed oil methyl ester (RME)
In order to produce a sufficient, active ingredient containing solution it is necessary to solve the test compound in the solvent-mix (acetone at 2 mg/ml/RME 2000 ppm). This solution is pipetted onto a glazed tile and after evaporation of the acetone, adult mosquitoes of the species Aedes aegypti strain MONHEIM are placed onto the dried surface. The exposure time is 30 minutes. Mortality in percent (%) is determined 24 hours after contact of the insects to the treated surface. 100% mortality means that all tested insects are dead, whereas 0% means that no insect died.

[8] = test system: adult flies Musca domestica strain WHO-N; experiment: Musca domestica test (MUSCDO surface treatment & contact assay); conditions: 24 hours after contact, read-out: efficacy (mortality); for mortality at 20 mg/m2: surface concentration 20 mg/m^2, 30 minutes exposure
Method: Musca domestica Test (MUSCDO Surface Treatment & Contact Assay) • Solvent: Aceton+2000 ppm rapeseed oil methyl ester (RME)
In order to produce a sufficient, active ingredient containing solution it is necessary to solve the test compound in the solvent-mix (acetone at 2 mg/ml/RME 2000 ppm). This solution is pipetted onto a glazed tile and after evaporation of the acetone, adult flies of the species Musca domestica strain WHO-N are placed onto the dried surface. The exposure time is 30 minutes. Mortality in percent (%) is determined 24 hours after contact of the insects to the treated surface. 100% mortality means that all tested insects are dead, whereas 0% means that no insect died.

[9] = test system: green peach aphid (Myzus persicae); experiment: Myzus persicae spray test; conditions: foliar, 120 h, 100 g/ha, Chinese cabbage leaf disks, after 5 days
Method: Myzus persicae—Spray Test • Solvent: 78.0 parts by weight acetone • 1.5 parts by weight dimethylformamide • Emulsifier: alkylarylpolyglycol ether
as §2
Chinese cabbage (Brassica pekinensis) leaf disks infected with all instars of the green peach aphid (Myzus persicae), are sprayed with a preparation of the active ingredient of the desired concentration.
(§3) After 5 days mortality in % is determined. 100% means all aphids have been killed and 0% means none of the aphids have been killed.

[10] = test system: larvae of the southern green stink bug (Nezara viridula); experiment: Nezara viridula spray test; conditions: 96 h, barley plants, after 4 days
Method: Nezara viridula—Spray Test • Solvent: 78.0 parts by weight of acetone • 1.5 parts by weight of dimethylformamide • Emulsifier: alkylarylpolyglycol ether
as §1
Barley plants (Hordeum vulgare) are sprayed with a test solution containing the desired concentration of the active ingredient and are infested with larvae of the southern green stink bug (Nezara viridula).
After 4 days mortality in % is determined. 100% means all the stink bugs have been killed; 0% means none of the stink bugs have been killed.

[11] = test system: adult mosquitoes Culex quinquefasciatus strain P00; experiment: Culex quinquefasciatus test (CULXFA surface treatment & contact assay); conditions: 24 hours after contact, read-out: efficacy (mortality)
Method: Culex quinquefasciatus Test (CULXFA Surface Treatment & Contact Assay) • Solvent: Aceton+2000 ppm rapeseed oil methyl ester (RME)
In order to produce a sufficient, active ingredient containing solution it is necessary to solve the test compound in the solvent-mix (acetone at 2 mg/ml/RME 2,000 ppm). This solution is pipetted onto a glazed tile and after evaporation of the acetone, adult mosquitoes of the species Culex quinquefasciatus strain P00 are placed onto the dried surface. The exposure time is 30 minutes. Mortality in percent (%) is determined 24 hours after contact of the insects to the treated surface. 100% mortality means that all tested insects are dead, whereas 0% means that no insect died.

[12] = test system: southern root-knot nematode (Meloidogyne incognita); experiment: Meloidogyne incognita test; conditions: 20 ppm, lettuce, after 14 days
Method: Meloidogyne Incognita—Test
• Solvent: 125.0 parts by weight of acetone
(§4) To produce a suitable preparation of active compound, 1 part by weight of active compound is mixed with the stated amount of solvent, and the concentrate is diluted with water to the desired concentration.
Vessels are filled with sand, a solution of the active ingredient, a suspension containing eggs and larvae of the southern root-knot nematode (Meloidogyne incognita) and lettuce seeds. The lettuce seeds germinate and the seedlings grow. Galls develop in the roots.
After 14 days the nematicidal effect in percent is determined by the formation of galls. 100% means no galls were found and 0% means the number of galls found on the roots of the treated plants was equal to that in untreated control plants.

[13] = test system: cotton aphid (Aphis gossypii); experiment: Aphis gossypii oral test; conditions: 120 h, after 5 days
Method: Aphis gossypii—Oral Test • Solvent: 100 Parts by Weight Acetone
as §4
50 μL compound solution is filled in microtiter plates and 150 μL IPL41 insect medium (33%+15% sugar) is added to obtain a total volume of 200 μL per well. Afterwards the plates are sealed with parafilm through which a mixed population of the cotton aphid (Aphis gossypii) can suck on the compound preparation.
as §3

[14] = test system: green peach aphid (Myzus persicae); experiment: Myzus persicae oral test; conditions: 120 h, after 5 days
Method: Myzus persicae—Oral Test • Solvent: 100 parts by weight acetone
as §4
50 μL compound solution is filled in microtiter plates and 150 μL IPL41 insect medium (33%+15% sugar) is added to obtain a total volume of 200 μL per well. Afterwards the plates are sealed with parafilm through which a mixed population of the green peach aphid (Myzus persicae) can suck on the compound preparation.
as §3

[15] = surface concentration 4 mg/m^2, 30 minutes exposure

Row | Compound | pest or weed control at 1 µg/cm2, 100 g/ha [1] | pest or weed control at 5 µg/cm2, 500 g/ha [1] | efficacy (infertile eggs) [2] | mortality at 100 ppm [3] | pest or weed control at 32 µg/disc, 100 g/ha [4] | mortality at 500 g/ha [5] | mortality at 100 g/ha [6] | mortality at 20 mg/m2 [7] | mortality at 20 mg/m2 [8] | mortality at 100 g/ha [9] | mortality at 500 g/ha [10] | mortality at 4 mg/m2 [7] | mortality at 4 mg/m2 [11, 15] | mortality at 20 mg/m2 ([11]; surface concentration 20 mg/m^2, 30 minutes exposure) | mortality at 4 mg/m2 [8, 15] | nematicidal effect (formation of galls) [12] | mortality at 100 ppm [13] | mortality at 20 ppm [14]
1 | C[C@H](NC(=O)c1cc(OC(F)(F)F)cc(C(C)(C)C#N)c1)c1nc2cccnc2n1-c1ccc(C#N)cn1 [Example I-1] | 90% | 80% | 100% | 100% | 100% | 100% | 100% | 80 to 100% | 80 to 100% |  |  |  |  |  |  |  |  | 
2 | C[C@H](NC(=O)c1cc(OC(F)(F)F)cc(C2CC2)c1)c1nc2cccnc2n1-c1ccc(C#N)cn1 [Example I-2] | 100% | 100% | 100% |  |  |  | 100% | 80 to 100% | 80 to 100% |  |  |  |  |  |  |  |  | 
3 | C[C@H](NC(=O)c1cc(OC(F)(F)F)cc(C2(C#N)CC2)c1)c1nc2cccnc2n1-c1ccc(C#N)cn1 [Example I-3] | 90% | 90% | 100% |  | 100% | 90% | 100% | 80 to 100% | 80 to 100% | 100% | 100% | 80 to 100% | 80 to 100% | 80 to 100% | 80 to 100% |  |  | 
4 | CNC(=O)c1ccc(-n2c(C(C)NC(=O)c3cc(C(F)(F)F)cc(C(F)(F)F)c3)nc3cccnc32)nc1 (stereo not drawn) [Example I-25] |  |  |  |  |  |  |  |  |  |  | 100% |  |  |  |  | 90% |  | 
5 | CNC(=O)c1ccc(-n2c(C(C)NC(=O)c3cc(OC(F)(F)F)cc(OC(F)(F)F)c3)nc3cccnc32)nc1 (stereo not drawn) [Example I-27] |  |  |  |  |  |  |  |  |  |  |  | 80 to 100% |  |  |  | 90% | 100% | 100%
6 | C[C@H](NC(=O)c1cc(OC(F)(F)F)cc(S(C)(=O)=O)c1)c1nc2cc(F)cnc2n1-c1ccc(C#N)cn1 [Example I-38] |  |  |  |  | 100% |  | 100% |  |  |  | 100% |  |  |  |  | 90% |  | 

From patent US20240254121A1, “ALKYLAMIDE SUBSTITUTED, ANNULATED IMIDAZOLES AND USE THEREOF AS INSECTICIDES” (Bayer Aktiengesellschaft, priority 2021, published 2024)
